Assay results from PMC6429309 (Molecules, 2019).
Values after ≈ are worked out from the molar mass of the structure shown. Values joined by “and” are separate entries in the source; they are usually repeats but may differ in a detail not shown here. Equal values may be shown once.

Key:
[1] = system: Xanthomonas axonopodis pv. citri (Xac); experiment: microbe, parasite or virus in culture; type: cell-based; conditions: for inhibition at 50 µg/mL / inhibition at 100 µg/mL / EC50: Xanthomonas axonopodis; for inhibition at 50 µg/mL / inhibition at 100 µg/mL: read-out: Antibacterial activity (inhibition rate) against Xac; for EC50: read-out: EC50 against Xac
[2] = system: Xanthomonas oryzae pv. oryzae (Xoo); experiment: microbe, parasite or virus in culture; type: cell-based; conditions: for inhibition at 50 µg/mL / inhibition at 100 µg/mL / EC50: Xanthomonas oryzae; for inhibition at 50 µg/mL / inhibition at 100 µg/mL: read-out: Antibacterial activity (inhibition rate) against Xoo; for Antibacterial activity (inhibition rate) against Xoo / EC50 against Xoo: in vitro; for Antibacterial activity (inhibition rate) against Xoo: strain PXO99A, average of three replicates; for EC50 against Xoo: five concentrations 100-6.25 μg/mL; for EC50: read-out: EC50 against Xoo

COP(=O)(OC)Oc1ccccc1/C=C/C(=O)/C=C/c1cccc(C)c1 [3r]
inhibition at 50 µg/mL [1]: 10.3 ± 2.5%
inhibition at 100 µg/mL [1]: 20.5 ± 1.2%
inhibition at 50 µg/mL [2]: 21 ± 2.2%
inhibition at 100 µg/mL [2]: 42.4 ± 1.4%

CCOP(=O)(OCC)Oc1ccccc1/C=C/C(=O)/C=C/c1cccc(C(F)(F)F)c1 [3q]
inhibition at 50 µg/mL [1]: 5.4 ± 2.6%
inhibition at 100 µg/mL [1]: 25.4 ± 0.5%
inhibition at 50 µg/mL [2]: 20.3 ± 3.1%
inhibition at 100 µg/mL [2]: 31.5 ± 2.1%

S=c1[nH]nc(NCNc2n[nH]c(=S)s2)s1 [Bismerthiazol, bismerthiazol, reference compound]
Antibacterial activity (inhibition rate) against Xac [1]: 70.3±2.8% and 54.9 ± 5.5%
EC50 against Xac [1]: 44.5 µg/mL (≈ 160 µM)
Antibacterial activity (inhibition rate) against Xoo ([2]; 50 μg/mL): 45.2 ± 2.0%
Antibacterial activity (inhibition rate) against Xoo ([2]; 100 μg/mL): 64.9 ± 3.9%
EC50 against Xoo [2]: 58.8 µg/mL (≈ 211 µM)

COP(=O)(OC)Oc1ccccc1/C=C/C(=O)/C=C/c1ccc(Br)cc1 [3n]
inhibition at 50 µg/mL [1]: 2.5 ± 0.9%
inhibition at 100 µg/mL [1]: 16.1 ± 3.8%
inhibition at 50 µg/mL [2]: 18.8 ± 1.1%
inhibition at 100 µg/mL [2]: 23.8 ± 5.3%

CCOP(=O)(OCC)Oc1ccccc1/C=C/C(=O)/C=C/c1ccccc1Cl [3f]
inhibition at 50 µg/mL [1]: 52.9 ± 2.1%
inhibition at 100 µg/mL [1]: 53.1 ± 2.1%
inhibition at 50 µg/mL [2]: 35.7 ± 3.4%
inhibition at 100 µg/mL [2]: 36.4 ± 3.1%

COP(=O)(OC)Oc1ccccc1/C=C/C(=O)/C=C/c1ccccc1 [3l]
inhibition at 50 µg/mL [1]: 29.2 ± 4.3%
inhibition at 100 µg/mL [1]: 49.4 ± 8%
inhibition at 50 µg/mL [2]: 16.7 ± 5.3%
inhibition at 100 µg/mL [2]: 35.9 ± 2.9%

Nc1nnc([S-])s1.Nc1nnc([S-])s1.[Cu+2] [Thiodiazole-copper, thiodiazole-copper, reference compound]
EC50 against Xac [1]: 87.9 µg/mL
Antibacterial activity (inhibition rate) against Xoo ([2]; 50 μg/mL): 37.2 ± 3.2%
Antibacterial activity (inhibition rate) against Xoo ([2]; 100 μg/mL): 50.2 ± 0.9%
EC50 against Xoo [2]: 78.7 µg/mL

CCOP(=O)(OCC)Oc1ccccc1/C=C/C(=O)/C=C/c1ccc(OC)cc1 [3d]
inhibition at 50 µg/mL [1]: 34.9 ± 1.5%
inhibition at 100 µg/mL [1]: 46.4 ± 1.1%
inhibition at 50 µg/mL [2]: 32.6 ± 2.2%
inhibition at 100 µg/mL [2]: 35.7 ± 1.1%

CCOP(=O)(OCC)Oc1ccccc1/C=C/C(=O)/C=C/c1ccc(Cl)cc1 [3b]
inhibition at 50 µg/mL [1]: 53 ± 3.6%
inhibition at 100 µg/mL [1]: 53.1 ± 3.2%
EC50 [1]: 34.1 µg/mL (≈ 81 µM)
inhibition at 50 µg/mL [2]: 35 ± 4.4%
inhibition at 100 µg/mL [2]: 37 ± 2.9%

COP(=O)(OC)Oc1ccccc1/C=C/C(=O)/C=C/c1ccc([N+](=O)[O-])cc1 [3i]
inhibition at 50 µg/mL [1]: 50.8 ± 4.2%
inhibition at 100 µg/mL [1]: 50.9 ± 4.5%
inhibition at 50 µg/mL [2]: 43.9%
inhibition at 100 µg/mL [2]: 56.6 ± 1.3%

CCOP(=O)(OCC)Oc1ccccc1/C=C/C(=O)/C=C/c1cccc(C)c1 [3s]
inhibition at 50 µg/mL [1]: 8.5 ± 3.8%
inhibition at 100 µg/mL [1]: 27.4 ± 1.7%
inhibition at 50 µg/mL [2]: 12.5 ± 6%
inhibition at 100 µg/mL [2]: 29.5 ± 4.8%

CCOP(=O)(OCC)Oc1ccccc1/C=C/C(=O)/C=C/c1ccccc1 [3m]
inhibition at 50 µg/mL [1]: 18 ± 2.9%
inhibition at 100 µg/mL [1]: 27.4 ± 0.6%
inhibition at 50 µg/mL [2]: 2.5 ± 5.7%
inhibition at 100 µg/mL [2]: 28.7 ± 9.1%

CCOP(=O)(OCC)Oc1ccccc1/C=C/C(=O)/C=C/c1ccc(C)cc1 [3k]
inhibition at 50 µg/mL [1]: 47.7 ± 3.1%
inhibition at 100 µg/mL [1]: 52.6 ± 2.9%
inhibition at 50 µg/mL [2]: 39.4 ± 0.4%
inhibition at 100 µg/mL [2]: 41.5 ± 0.6%

CCOP(=O)(OCC)Oc1ccccc1/C=C/C(=O)/C=C/c1cccc([N+](=O)[O-])c1 [3h]
inhibition at 50 µg/mL [1]: 48.5 ± 4.2%
inhibition at 100 µg/mL [1]: 54.8 ± 3.8%
inhibition at 50 µg/mL [2]: 78.1 ± 1.4%
inhibition at 100 µg/mL [2]: 86.5 ± 1.9%
EC50 [2]: 19.1 µg/mL (≈ 44.3 µM)

COP(=O)(OC)Oc1ccccc1/C=C/C(=O)/C=C/c1ccc(Cl)cc1 [3a, 2-((1E,4E)-5-(4-chlorophenyl)-3-oxopenta-1,4-dien-1-yl)phenyl dimethyl phosphate]
inhibition at 50 µg/mL [1]: 50.6 ± 4.6%
inhibition at 100 µg/mL [1]: 59.7 ± 1.8%
EC50 [1]: 45 µg/mL
inhibition at 50 µg/mL [2]: 83.9 ± 2.1%
inhibition at 100 µg/mL [2]: 85 ± 2.1%
EC50 [2]: 35.8 µg/mL

CCOP(=O)(OCC)Oc1ccccc1/C=C/C(=O)/C=C/c1ccc([N+](=O)[O-])cc1 [3j]
inhibition at 50 µg/mL [1]: 52.9 ± 5.4%
inhibition at 100 µg/mL [1]: 61.9 ± 1.1%
inhibition at 50 µg/mL [2]: 81.4 ± 0.9%
inhibition at 100 µg/mL [2]: 85.5 ± 0.8%
EC50 [2]: 17.7 µg/mL (≈ 41 µM)

CCOP(=O)(OCC)Oc1ccccc1/C=C/C(=O)/C=C/c1ccc(Br)cc1 [3o]
inhibition at 50 µg/mL [1]: 23 ± 2.7%
inhibition at 100 µg/mL [1]: 28.4 ± 3.4%
inhibition at 50 µg/mL [2]: 19.9 ± 3.7%
inhibition at 100 µg/mL [2]: 31.4 ± 2.2%

COc1ccc(/C=C/C(=O)/C=C/c2ccccc2OP(=O)(OC)OC)cc1 [3c]
inhibition at 50 µg/mL [1]: 53.5 ± 2.5%
inhibition at 100 µg/mL [1]: 57.5 ± 2.1%
inhibition at 50 µg/mL [2]: 23.4 ± 0.9%
inhibition at 100 µg/mL [2]: 25.5 ± 0.9%

COP(=O)(OC)Oc1ccccc1/C=C/C(=O)/C=C/c1cccc(C(F)(F)F)c1 [3p]
inhibition at 50 µg/mL [1]: 11.5 ± 1.8%
inhibition at 100 µg/mL [1]: 20.2 ± 0.8%
inhibition at 50 µg/mL [2]: 21.8 ± 1.5%
inhibition at 100 µg/mL [2]: 25 ± 3.1%

COP(=O)(OC)Oc1ccccc1/C=C/C(=O)/C=C/c1ccccc1Cl [3e]
inhibition at 50 µg/mL [1]: 67.9 ± 4.3%
inhibition at 100 µg/mL [1]: 77.6 ± 2.8%
EC50 [1]: 22.9 µg/mL (≈ 58.3 µM)
inhibition at 50 µg/mL [2]: 65.3 ± 1.9%
inhibition at 100 µg/mL [2]: 69.4 ± 0.6%
EC50 [2]: 46 µg/mL (≈ 117 µM)
